Reference: patent US3930838A, “S-benzyl-N,N-disec-butylthiocarbamate and its use as a rice field herbicide and a rice growth stimulant” (priority 1970, dated 1976)
Values joined by “and” are separate entries in the source; they are usually repeats but may differ in a detail not shown here. Identical values can stand only once.

Legend:
[1] = test system: rice; assay: Further test on rice in submerged culture at high doses (Example 8); type: in vivo; details: 33 days
Experimental: Into a set of cylindrical pots having a 200 cm^2 internal surface, sieved rice field earth in a quantity of 1 kg. per pot was introduced. After leveling and wetting with 200 cc. of water, the earth surface of the pots was uniformly sprayed with hydroacetone solutions containing, respectively, 0, 0.2, 0.3, and 0.4% active product (a.p.). 4 Ml. of the solution were sprayed onto each pot, so that the amount of active product in a set of four pots was 0, 4, 6, and 8 kg./ha., respectively. Immediately after spraying, each pot was filled with water to a level of 7 cm. over the soil surface. Thereafter, the sowing was carried out at the rate of 15 pre-germinated rice seeds per pot. Three repetitions were performed for each treatment. The pots were kept in an air-conditioned atmosphere with a daily temperature variation between 10° and 25°C and a 14 hour per day light period. After 24 days, the percentage of sprouted plants and the length of the shoot were recorded.
In view of the foregoing results, a further test was conducted according to the methodology of Example 7. During such test, M3432 was employed in quantities of 10, 20, and 30 kg./ha. The results were gathered 33 days after the treatments.

[2] = test system: Agrostis segetum; assay: Weeding activity in screening conditions (Example 12); type: in vivo; parameters: scale not given here; details: 25 days
From the text: (§1) Two sets of small square tanks having 11 cm. sides, filled with field earth admixed with 30% of sand, were sowed at a depth of 0.5-1 cm. with the following grass species: Echinocloa crus galli, Setaria italica, Alopecurus myosiuroides, Lolium italicum, Digitaria sanguinalis, Avena fatua, Agrostis segetum, and Dactylis glomerata. After sowing, the earth surface of the tanks was uniformly sprayed with 2.4 cc./tank of hydroacetone solutions containing, respectively, 0, 0.05, 0.10, 0.20 and 0.30% of M3432 and of molinate, respectively, in order to obtain doses thereof corresponding to 0, 1, 2, 4, and 6 kg./ha., respectively.
(§2) Only one set of small tanks was covered with a 1 cm. layer of earth just after the treatment. All of the tanks were kept in an air-conditioned chamber identical with that described in Example 7, and were watered every day. 25 days after the treatment, the final results were examined, attributing to each treatment the following scale of values: […]

[3] = test system: Alopecurus myosiuroides; assay: as above; type: in vivo; parameters: scale not given here; details: 25 days
From the text: as §1, §2

[4] = test system: Avena fatua; assay: as above; type: in vivo; parameters: scale not given here; details: 25 days
From the text: as §1, §2

[5] = test system: Digitaria sanguinalis; assay: as above; type: in vivo; parameters: scale not given here; details: 25 days
From the text: as §1, §2

[6] = test system: Lolium italicum; assay: as above; type: in vivo; parameters: scale not given here; details: 25 days
From the text: as §1, §2

[7] = test system: Echinocloa spp.; assay: Post emergence hothouse test No. 2 (Example 16); type: in vivo; details: 4, 6, and 8 kg./ha., 26 days; plants max. 10 cm. at treatment
Experimental: A set of boxes having a 1,000 cm^2 internal surface was prepared in a hothouse according to the method described in Example 9. The boxes were sowed with Echinocloa spp. (70 seeds per box). After saturation of the soil, and as soon as the infesting plants emerged from the soil, the boxes were flooded with a 7 cm. layer of water. When the plants reached a maximum height of 3-4 cm., the treatment was effected by spraying the flooding water surfaces with hydroacetone solutions according to the modalities employed in Example 9. 3 days after the treatment, the following results were observed:
A second test was carried out in the same manner as Test No. 1 except that the treatment took place when the infesting plants had reached a maximum of 10 cm. 26 days after such treatment, the following was observed: […]

[8] = test system: rice; assay: Rice seed treatment, 5000 square meter field plots, test No. 3, rice (Example 17); type: in vivo; details: 67 days; for Rice tiller dry weight / Rice tiller number: single 1 m^2 testing area
Experimental: A further test was carried out outdoors on loam soil on plots of about 5000 square meters surface.
After flooding each plot, seeds treated as in Test No. […] In all cases, the seen quantity was 150 kg./ha. 67 days after sowing, the results were gathered on 5 representative testing areas of 1 square meter each for each dosage level.

[9] = Solubility and volatility; type: physicochemical
[10] = Treated surface covered with 1 cm earth layer, 2 kg./ha.
[11] = Treated surface covered with 1 cm earth layer, 4 kg./ha.
[12] = Treated surface covered with 1 cm earth layer, 6 kg./ha.

In the case of `CCC(C)N(C(=O)SCc1ccccc1)C(C)CC` (centres unmarked) [M3432, S-benzyl-N,N-disec.butylthiocarbamate], the Main root ([1]; 10 kg./ha.) is reported as 11.3 cm, the Secondary roots ([1]; 10 kg./ha.) is reported as 4.4 number per plant and the Shoot ([1]; 10 kg./ha.) is reported as 19.97 cm. The Sprouted plants ([1]; 10 kg./ha.) was 71.1%, the Main root ([1]; 20 kg./ha.) was 10.6 cm and the Secondary roots ([1]; 20 kg./ha.) was 5.1 number per plant. For the same compound, the Shoot ([1]; 20 kg./ha.) was 20.9 cm, the Sprouted plants ([1]; 20 kg./ha.) was 77.7% and the Main root ([1]; 30 kg./ha.) was 11.1 cm. For the same compound, the Secondary roots ([1]; 30 kg./ha.) was 5.4 number per plant, the Shoot ([1]; 30 kg./ha.) was 23.4 cm and the Sprouted plants ([1]; 30 kg./ha.) was 80.0%. For the same compound, the Weeding activity ([2]; Surface, 1 kg./ha.) was 4, the Weeding activity ([2]; Surface, 2 kg./ha.) was 4 and the Weeding activity ([2]; Surface, 6 kg./ha.) was 4. It also gave a Weeding activity [2, 10] of 4, a Weeding activity [2, 11] of 4 and a Weeding activity [2, 12] of 4. For the same compound, the Weeding activity ([3]; Surface, 1 kg./ha.) was 1/2, the Weeding activity ([3]; Surface, 2 kg./ha.) was 2 and the Weeding activity ([3]; Surface, 4 kg./ha.) was 3. The Weeding activity ([3]; Surface, 6 kg./ha.) was 4, the Weeding activity [3, 10] was 4 and the Weeding activity [3, 11] was 4. The Weeding activity [3, 12] was 4, the Weeding activity ([4]; Surface, 1 kg./ha.) was 2/3 and the Weeding activity ([4]; Surface, 2 kg./ha.) was 3. The Weeding activity ([4]; Surface, 4 kg./ha.) was 3, the Weeding activity ([4]; Surface, 6 kg./ha.) was 3 and the Weeding activity [4, 10] was 4. It also gave a Weeding activity [4, 11] of 4, a Weeding activity [4, 12] of 4 and a Weeding activity ([5]; Surface, 1 kg./ha.) of 3. For the same compound, the Weeding activity ([5]; Surface, 2 kg./ha.) was 4, the Weeding activity ([5]; Surface, 4 kg./ha.) was 4 and the Weeding activity ([5]; Surface, 6 kg./ha.) was 4. It also gave a Weeding activity [5, 10] of 4, a Weeding activity [5, 11] of 4 and a Weeding activity [5, 12] of 4. For the same compound, the Weeding activity ([6]; Surface, 1 kg./ha.) was 4, the Weeding activity ([6]; Surface, 2 kg./ha.) was 4 and the Weeding activity ([6]; Surface, 4 kg./ha.) was 4. For the same compound, the Weeding activity ([6]; Surface, 6 kg./ha.) was 4, the Weeding activity [6, 10] was 4 and the Weeding activity [6, 11] was 4. The Weeding activity [6, 12] was 4, the Shoot [7] was 0 cm and the Stand [7] was 0%. For the same compound, the “Rice tiller dry weight” value ([8]; 3.4 kg./ha.) was 254.50 (g.)/m^2 and 331.10 (g.)/m^2 and 301.08 (g.)/m^2 and 373.50 (g.)/m^2 and 332.00 (g.)/m^2, the Rice tiller number ([8]; 3.4 kg./ha.) was 432 (no.)/m^2 and 430 (no.)/m^2 and 421 (no.)/m^2 and 417 (no.)/m^2 and 392 (no.)/m^2 and the “Rice tiller dry weight, average on 5 testing areas” value ([8]; 3.6 kg./ha.) was 318.44 (g.)/m^2. For the same compound, the “Rice tiller number, average on 5 testing areas” value ([8]; 3.6 kg./ha.) was 418.4 (no.)/m^2, the “Rice tiller dry weight, average on 5 testing areas” value ([8]; 4.0 kg./ha.) was 438.01 (g.)/m^2 and the “Rice tiller number, average on 5 testing areas” value ([8]; 4.0 kg./ha.) was 559.0 (no.)/m^2. The “Rice tiller dry weight” value ([8]; 4.0 kg./ha.) was 473.98 (g.)/m^2 and 316.91 (g.)/m^2 and 484.50 (g.)/m^2 and 423.55 (g.)/m^2 and 491.10 (g.)/m^2, the Rice tiller number ([8]; 4.0 kg./ha.) was 599 (no.)/m^2 and 440 (no.)/m^2 and 687 (no.)/m^2 and 523 (no.)/m^2 and 546 (no.)/m^2 and the Volatility [9] was “not volatile”. For the same compound, the “Solubility in organic solvents” value ([9]; benzene, ether, heptane, methanol, cyclohexanone, acetone, methyl chloride, dichloroethane) was “soluble” and the Solubility in water ([9]; water) was “practically insoluble”.
With `CCSC(=O)N1CCCCCC1` [Molinate, ethyl-1-hexamethylene-imino-carbothiolate, reference compound] the Weeding activity ([2]; Surface, 2 kg./ha.) was 2, the Weeding activity ([2]; Surface, 4 kg./ha.) was 4 and the Weeding activity ([2]; Surface, 6 kg./ha.) was 4. It also gave a Weeding activity [2, 10] of 4, a Weeding activity [2, 11] of 4 and a Weeding activity [2, 12] of 4. For the same compound, the Weeding activity ([3]; Surface, 2 kg./ha.) was 1/2, the Weeding activity ([3]; Surface, 4 kg./ha.) was 2 and the Weeding activity ([3]; Surface, 6 kg./ha.) was 3. The Weeding activity [3, 10] was 3, the Weeding activity [3, 11] was 4/3 and the Weeding activity [3, 12] was 4/3. For the same compound, the Weeding activity ([4]; Surface, 2 kg./ha.) was 1, the Weeding activity ([4]; Surface, 4 kg./ha.) was 3/2 and the Weeding activity ([4]; Surface, 6 kg./ha.) was 4/3. The Weeding activity [4, 10] was 4, the Weeding activity [4, 11] was 4 and the Weeding activity [4, 12] was 4. For the same compound, the Weeding activity ([5]; Surface, 2 kg./ha.) was 0, the Weeding activity ([5]; Surface, 4 kg./ha.) was 3/4 and the Weeding activity ([5]; Surface, 6 kg./ha.) was 4. The Weeding activity [5, 10] was 4, the Weeding activity [5, 11] was 4 and the Weeding activity [5, 12] was 4. The Weeding activity ([6]; Surface, 2 kg./ha.) was 0/1, the Weeding activity ([6]; Surface, 4 kg./ha.) was 2 and the Weeding activity ([6]; Surface, 6 kg./ha.) was 2/3. The Weeding activity [6, 10] was 3/2, the Weeding activity [6, 11] was 3/4 and the Weeding activity [6, 12] was 4.
